From ChEMBL document CHEMBL1201862, “PubChem BioAssay data set” (2004)
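Following 48 hours of exposure in 96-well plates, responses at five concentrations were used to interpolate endpoints linearly. The concentration for 50% growth inhibition is given as GI50.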 Activity calls are given as the source filed them. Rule as the data show it: active = GI50 up to about 1.1 µM and inactive = higher.

Assays:
Assay in all cases: NCI tumour cell line growth inhibition, 48 h
M14 = test system: M14
SN12C = test system: SN12C
SK-OV-3 = test system: SK-OV-3
K562 = test system: K562
MDA-N = test system: MDA-N
MCF7 = test system: MCF7
OVCAR-4 = test system: OVCAR-4
NCI-H522 = test system: NCI-H522
A549 = test system: A549
U-251 = test system: U-251
KM12 = test system: KM12
HCC 2998 = test system: HCC 2998
TK-10 = test system: TK-10
SNB-19 = test system: SNB-19
LOX IMVI = test system: LOX IMVI
SK-MEL-28 = test system: SK-MEL-28
SF-268 = test system: SF-268
SR = test system: SR
MDA-MB-435 = test system: MDA-MB-435
IGROV-1 = test system: IGROV-1
SF-295 = test system: SF-295
HL-60 = test system: HL-60
SF-539 = test system: SF-539
CCRF-CEM = test system: CCRF-CEM
SK-MEL-5 = test system: SK-MEL-5
MOLT-4 = test system: MOLT-4
DU-145 = test system: DU-145
BT-549 = test system: BT-549
A498 = test system: A498
SNB-75 = test system: SNB-75
SK-MEL-2 = test system: SK-MEL-2
CAKI-1 = test system: CAKI-1
COLO 205 = test system: COLO 205
RPMI-8226 = test system: RPMI-8226
HCT-15 = test system: HCT-15
786-0 = test system: 786-0
OVCAR-5 = test system: OVCAR-5
HOP-62 = test system: HOP-62
HCT-116 = test system: HCT-116
NCI/ADR-RES = test system: NCI/ADR-RES
ACHN = test system: ACHN
RXF 393 = test system: RXF 393
T47D = test system: T47D
EKVX = test system: EKVX
Malme-3M = test system: Malme-3M
HT-29 = test system: HT-29
NCI-H23 = test system: NCI-H23
OVCAR-8 = test system: OVCAR-8
UACC-62 = test system: UACC-62
PC-3 = test system: PC-3
Hs-578T = test system: Hs-578T
SW-620 = test system: SW-620
MDA-MB-231 = test system: MDA-MB-231
UACC-257 = test system: UACC-257
NCI-H226 = test system: NCI-H226
NCI-H460 = test system: NCI-H460
OVCAR-3 = test system: OVCAR-3
HOP-92 = test system: HOP-92

Measured: GI50

O=[N+]([O-])c1cc(F)ccc1Sc1ccccc1
inactive: M14 > 10 µM | SN12C > 10 µM | SK-OV-3 > 10 µM | K562 > 10 µM | MDA-N > 10 µM | MCF7 > 10 µM | OVCAR-4 > 10 µM | NCI-H522 > 10 µM | A549 > 10 µM | U-251 > 10 µM | KM12 > 10 µM | HCC 2998 > 10 µM | TK-10 > 10 µM | SNB-19 > 10 µM | LOX IMVI > 10 µM | SK-MEL-28 > 10 µM | SF-268 > 10 µM | SR > 10 µM | MDA-MB-435 > 10 µM | IGROV-1 > 10 µM | SF-295 > 10 µM | HL-60 > 10 µM | SF-539 > 10 µM | CCRF-CEM > 10 µM | SK-MEL-5 > 10 µM | MOLT-4 > 10 µM | DU-145 > 10 µM | BT-549 > 10 µM | A498 > 10 µM | SNB-75 > 10 µM | SK-MEL-2 > 10 µM | CAKI-1 > 10 µM | COLO 205 > 10 µM | RPMI-8226 > 10 µM | 786-0 > 10 µM | OVCAR-5 > 10 µM | HOP-62 > 10 µM | HCT-116 > 10 µM | NCI/ADR-RES > 10 µM | ACHN > 10 µM | RXF 393 > 10 µM | T47D > 10 µM | EKVX > 10 µM | Malme-3M > 10 µM | HT-29 > 10 µM | NCI-H23 > 10 µM | OVCAR-8 > 10 µM | UACC-62 > 10 µM | PC-3 > 10 µM | Hs-578T > 10 µM | SW-620 > 10 µM | MDA-MB-231 > 10 µM | UACC-257 > 10 µM | NCI-H226 > 10 µM | NCI-H460 > 10 µM | OVCAR-3 > 10 µM | HOP-92 > 10 µM
> 10 µM: HCT-15
